Patent publication US10322132B2, “Prevention or treatment of uratic or gouty diseases” (SHANTON PHARMA CO., LTD., priority 2015, dated 2019)

What was measured:
[1] = tested on: serum uric acid; assay: Uric acid-lowering experiment in cynomolgus monkeys; format: in vivo; design: Reduction rate of serum uric acid: concentration or dose not given beside the values; settings: for effect on serum uric acid levels in the test monkeys (in words): compared to the levels measured before administration; for Reduction rate of serum uric acid / Content of serum uric acid: intravenous
Experimental: The experiment was done by reference to Komoriya K, Osada Y, Hasegawa M, Horiuchi H, Kondo S, Couch R C, Griffin T B. Hypouricemic effect of allopurinol and the novel xanthine oxidase inhibitor TEI-6720 in chimpanzees. Eur J Pharmacol. 1993 Dec. 21; 250(3): 455-60.
Each compound was tested in three non-naïve cynomolgus monkeys (1 #, 2 # and 3 #), wherein the monkeys were administered with test samples by intravenous injection. Blood was collected from the vein before administration and 1 h, 3 h, 6 h and 24 h after administration. The blood was left still at room temperature. The serum was collected by centrifugation. The content of uric acid in serum was measured. Reduction rate of serum uric acid=(average uric acid content before administration−average uric acid content after administration)/average uric acid content before administration*100%.

[2] = tested on: MSU-induced gouty arthritis; assay: Pain value in rats with gouty arthritis (electronic Von Frey pain threshold detector); format: in vivo, Male Wistar rats; settings: for Pain value: Example 5, 15 mg/kg subcutaneous, left foot, Von Frey; for effect on pain values in the test rats (in words): Example 5, compared with the model group
Experimental: The rats with gouty arthritis were placed in a metabolic cage, and the palm center of the left foot of each rat was irritated with an electronic Von Frey pain threshold detector. The maximum stress value was recorded when each rat withdrew its foot, and the value was the pain value of that rat.

[3] = target: T1, human urate transporter 1 (hURAT1) (Homo sapiens, UniProt Q96S37); assay: Uptake of 14C-labeled uric acid in hURAT1 transfected cells; format: cell-based; settings: 14C uric acid uptake, hURAT1-transfected HEK-293T cells, 5 min at 37° C.; read-out: IC50 (μM), inhibition of hURAT1 activity
T1 construct: expressed in transfected cells; host or cells: HEK-293T
T1 sequence (Q96S37 1-553): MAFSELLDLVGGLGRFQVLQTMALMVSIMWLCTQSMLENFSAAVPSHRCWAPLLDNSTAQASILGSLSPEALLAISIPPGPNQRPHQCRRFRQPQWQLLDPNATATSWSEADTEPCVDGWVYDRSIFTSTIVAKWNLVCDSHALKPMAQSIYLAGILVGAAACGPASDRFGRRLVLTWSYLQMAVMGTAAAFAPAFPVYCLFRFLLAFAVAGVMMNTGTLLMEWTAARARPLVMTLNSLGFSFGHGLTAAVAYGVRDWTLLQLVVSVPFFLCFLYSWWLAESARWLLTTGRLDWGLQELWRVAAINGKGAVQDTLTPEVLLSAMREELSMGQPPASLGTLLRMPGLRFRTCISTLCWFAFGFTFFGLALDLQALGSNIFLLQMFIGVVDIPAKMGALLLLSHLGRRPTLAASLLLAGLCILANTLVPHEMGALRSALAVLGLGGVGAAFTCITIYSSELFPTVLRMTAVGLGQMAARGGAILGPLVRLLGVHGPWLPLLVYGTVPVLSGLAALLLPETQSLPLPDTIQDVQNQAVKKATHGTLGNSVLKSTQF
Experimental: The compounds were prepared into the stock solutions (5 mM) with dimethyl sulfoxide (DMSO). This experiment involved 8 concentrations in total. The final concentrations were 5000 nM, 1250 nM, 312.5 nM, 78.1 nM, 19.5 nM, 4.9 nM, 1.2 nM and 0.3 nM, respectively.
Preparation of buffers: chlorine-free HBSS buffer (125 mM sodium gluconate, 4.8 mM potassium gluconate, 1.3 mM calcium gluconate, 1.2 mM KH2PO4, 1.2 mM MgSO4, 5.6 mM glucose, 25 mM 4-hydroxyethylpiperazine ethanesulfonic acid (HEPES) (pH 7.4)); lysis buffer (100 mM NaOH)
Transfected cells stably expressing human urate transporter 1 (hURAT1) were obtained by: placing human embryonic kidney cells (HEK-293T) in a cell culture plate containing complete medium, incubating the cells for 24 h at 37° C. in 5% CO2, rinsing the cells with phosphate buffered saline (PBS) followed by trypsin digestion to prepare a suspension containing single cells; placing 8×10^6 cells a cell culture plate, adding dropwise TransIT-293 Reagent:DNA complexes (1.5 ml of Opti-MEM I Reduced-Serum Medium, 15 g of plasmid DNA, and 45 μL of TransIT-293 Reagent were mixed uniformly and then incubated at room temperature for 30 min) to different areas of the cell culture plate, gently shaking the cell culture plate to homogeneously distribute the TransIT-293 Reagent:DNA complexes, and incubating the cells for 48 h at 37° C. in 5% CO2.
Uptake of ^14C-labeled uric acid in hURAT1 transfected cells: (1) hURAT1-transfected cells were placed in a Poly-D-lysine 96-well microplate at a cell density of 6×10^4/well, and left still overnight at 37° C. in 5% CO2; (2) after the cells were placed in the Poly-D-lysine 96-well microplate for 12 h, the cells were washed for 3 times with 200 μl of pre-heated chlorine-free HBSS buffer per well, and the washing solution in the microplate was removed; (3) 50 μl of uric acid-containing [8-14C] […]

[4] = Pharmacokinetics experiment in cynomolgus monkeys, intravenous; format: in vivo, cynomolgus monkeys (Macaca fascicularis); settings: 5 mg/kg, Mean ± SD, n = 3
Experimental: Three non-naïve cynomolgus monkeys were administered with test compounds A, B and D at a dose of 5 mg/kg by intravenous injection and with test compound C at a dose of 3 mg/kg by intravenous injection, with one compound being tested at a time. Blood was collected from the vein before administration and 1 h, 3 h, 6 h and 24 h after administration, and plasma was isolated. The plasma was analyzed by a 4000 Q Trap LC-MS/MS instrument. The concentrations of the test samples were output by Analyst 1.6.1 from AB Company. The parameters ( ) such as the mean, standard deviation, and coefficient of variation were calculated using Microsoft Excel, wherein the values directly output by Analyst 1.6.1 requires no calculation. PK parameters were calculated using Pharsight Phoenix 6.2 software (NCA model).

[5] = tested on: IFNγ; assay: ConA-induced IFNγ release; format: in vivo, Male C57BL/6 mice; settings: for inhibition (%): IFN-γ in serum vs model group, 20 mg/kg subcutaneous; for effect on content of IFNγ in the serum of the test mice (in words): compared with the model group; for Content of IFN-γ: serum, 20 mg/kg subcutaneous 30 min before ConA 15 mg/kg tail vein, 3 h after ConA
Experimental: The experiment was conducted by reference to Dalya R. Soondl, Elisa Bjørgo, etc. PI3K p110δ regulates T cell cytokine production during primary and secondary immune responses in mice and humans. Blood. Author manuscript; available in PMC 2013 Mar. 11; and Gabriele Sass, Sonja Heinlein, etc. CYTOKINE EXPRESSION IN THREE MOUSE MODELS OF EXPERIMENTAL HEPATITIS. CYTOKINE, Vol. 19, No. 3 (7 Aug.), 2002: pp 115-120.
The C57BL/6 mice were raised in the SPF-grade animal room for 1 week, and were then randomly divided into the corresponding model group and the administration groups according to the body weight. The […] were administered with ConA by the tail vein injection at a dose of 15 mg/kg 30 min after the administration of the solvent or the test samples by subcutaneous injection at a dose of 20 mg/kg. After the mice were anesthetized with sodium pentobarbital (45 mg/kg by intraperitoneal injection) 3 h after administration of ConA, the blood was collected by cardiac puncture. The blood was placed in the centrifuge tube without anticoagulant and left still at room temperature. One hour later, the blood was centrifuged. The serum was extracted and stored at −80° C. The content of IFNγ (γ-interferon) in the serum was detected by a Mouse IFNγ Elisa

[6] = 3 h after administration vs before administration, animal 1#
[7] = 3 h after administration vs before administration, animal 2#
[8] = 3 h after administration vs before administration, mean
[9] = 3 h after administration, animal 1#
[10] = 3 h after administration, animal 2#

| Compound | effect on serum uric acid levels in the test monkeys (in words) [1] | Reduction rate of serum uric acid [1, 6] | Reduction rate of serum uric acid [1, 7] | Reduction rate of serum uric acid [1, 8] | Content of serum uric acid [1, 9] | Content of serum uric acid [1, 10] | Content of serum uric acid ([1]; 3 h after administration, mean) | Pain value [2] | effect on pain values in the test rats (in words) [2] | IC50 [3] | t1/2z [4] | inhibition (%) [5] | effect on content of IFNγ in the serum of the test mice (in words) [5] | Content of IFN-γ [5] | other results |
| --- | --- | --- | --- | --- | --- | --- | --- | --- | --- | --- | --- | --- | --- | --- | --- |
| CCCCCn1c(=O)[nH]c(=O)c2[nH]c(Cl)nc21 [Compound A, 8-chloro-3-pentyl-3,7-dihydro-1H-purine-2,6-dione] | significantly reduce | 18.5% | 38.0% | 22.8% | 61.9 µmol/L | 57.0 µmol/L | 59.6 µmol/L | 47.51 g | significantly increase | 2.52 µM | 14.55 ± 6.69 h | 38.3% | significantly reduce | 2025 pg/mL | Reduction rate of serum uric acid ([1]; 3 h after administration vs before administration, animal 3#): 5.98%; Content of serum uric acid ([1]; 3 h after administration, animal 3#): 59.9 µmol/L; Reduction rate of serum uric acid ([1]; 6 h after administration vs before administration, animal 1#): 10.9%; Reduction rate of serum uric acid ([1]; 6 h after administration vs before administration, animal 2#): 48.2%; Reduction rate of serum uric acid ([1]; 6 h after administration vs before administration, animal 3#): 20.9%; Reduction rate of serum uric acid ([1]; 6 h after administration vs before administration, mean): 28.5%; Content of serum uric acid ([1]; 6 h after administration, animal 1#): 67.6 µmol/L; Content of serum uric acid ([1]; 6 h after administration, animal 2#): 47.6 µmol/L; Content of serum uric acid ([1]; 6 h after administration, animal 3#): 50.4 µmol/L; Content of serum uric acid ([1]; 6 h after administration, mean): 55.2 µmol/L |
| CCCCCn1c(=O)n(C)c(=O)c2[nH]c(Cl)nc21 [Compound D, 8-chloro-1-methyl-3-pentyl-3,7-dihydro-1H-purine-2,6-dione] | significantly reduce | 14.3% | 13.6% | 13.9% | 49.6 µmol/L | 47.1 µmol/L | 48.4 µmol/L | 43.10 g | significantly increase | 0.87 µM | 5.90 ± 0.42 h | 35.8% | significantly reduce | 2108 pg/mL | – |
